From patent US20230089073A1 (Carmot Therapeutics, Inc., priority 2021, published 2023)

What follows are compounds tested against T1, human GLP-1 receptor (Homo sapiens, UniProt P43220) (assay: GLP-1R cAMP Assay). Details: cAMP accumulation in CHO cells stably overexpressing the human GLP-1 receptor; 30 min treatment; HitHunter cAMP kit; read-out: EC50.
T1 construct: expressed in transfected cells
Assay type: cell-based
Procedure: cAMP accumulation was measured in Chinese hamster ovary (CHO) cells stably overexpressing the human GLP-1 receptor using the HitHunter cAMP Assay for Small Molecules Kit (Eurofins). Briefly, cells were grown in Ham's F12 Nutrient Mix with 10% FBS, and lifted with Cell Dissociation Buffer, Enzyme free, PBS based (ThermoFisher). […] The anti-cAMP antibody reagent was then added to cells at a 1:2 ratio and 5 μL of mixture was seeded in 384-well small volume white assay plates, at 10,000 cells/well. Cells were then treated with 50 nL compound using an ECHO 550 acoustic dispenser (Labcyte) in a 20-point dose response format in triplicate for 30 min. Cells were then lysed, and detection reagents added according to the manufacturer's protocol. After overnight incubation, luminescence was measured using a Perkin Elmer Envision plate reader. Dose response curves were analyzed using GraphPad Prism 9.0.

T1 sequence (P43220 24-463): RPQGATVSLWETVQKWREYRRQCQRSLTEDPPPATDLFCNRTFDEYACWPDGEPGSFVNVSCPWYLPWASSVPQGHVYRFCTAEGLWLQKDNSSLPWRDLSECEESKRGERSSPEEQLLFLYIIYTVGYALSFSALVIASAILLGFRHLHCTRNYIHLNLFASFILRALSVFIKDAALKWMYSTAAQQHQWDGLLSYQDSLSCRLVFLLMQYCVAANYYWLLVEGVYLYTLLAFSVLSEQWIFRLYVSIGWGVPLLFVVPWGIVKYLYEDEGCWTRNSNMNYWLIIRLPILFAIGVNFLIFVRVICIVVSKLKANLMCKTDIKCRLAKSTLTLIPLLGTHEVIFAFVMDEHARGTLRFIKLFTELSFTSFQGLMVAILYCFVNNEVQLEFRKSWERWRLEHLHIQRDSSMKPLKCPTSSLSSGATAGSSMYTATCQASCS

CCn1cncc1Cn1c(CN2CCC(Oc3cccc(COc4ccc(Cl)cc4C#N)n3)CC2)nc2ccc(C(=O)O)cc21 [Compound 246, 2-{[4-({6-[(4-chloro-2-cyanophenoxy)methyl]pyridin-2-yl}oxy)piperidin-1-yl]methyl}-1-[(1-ethyl-1H-imidazol-5-yl)methyl]-1H-1,3-benzodiazole-6-carboxylic acid] and CCn1cncc1Cn1c(CN2CCC(Cc3cccc(COc4ccc(Cl)cc4C#N)c3)CC2)nc2ccc(C(=O)O)cc21 [Compound 165, 2-{[4-({3-[(4-chloro-2-cyanophenoxy)methyl]phenyl}methyl)piperidin-1-yl]methyl}-1-[(1-ethyl-1H-imidazol-5-yl)methyl]-1H-1,3-benzodiazole-6-carboxylic acid] cannot be ordered by EC50: < 50 nM for the first, < 50 nM for the second.

O=C(O)c1ccc2nc(CN3CCC(Oc4cccc(COc5ccc(Cl)cc5F)n4)CC3)n(Cc3ncco3)c2c1 [Compound 268, 2-{[4-({6-[(4-chloro-2-fluorophenoxy)methyl]pyridin-2-yl}oxy)piperidin-1-yl]methyl}-1-[(1,3-oxazol-2-yl)methyl]-1H-1,3-benzodiazole-6-carboxylic acid] and O=C(O)c1ccc2nc(CN3CCC(Oc4ccnc(COc5ccc(Cl)cc5Cl)c4)CC3)n(Cc3ncco3)c2c1 [Compound 170, 2-{[4-({2-[(2,4-dichlorophenoxy)methyl]pyridin-4-yl}oxy)piperidin-1-yl]methyl}-1-[(1,3-oxazol-2-yl)methyl]-1H-1,3-benzodiazole-6-carboxylic acid] cannot be ordered by EC50: < 50 nM for the first, < 50 nM for the second.

N#CCC1(Cn2c(CN3CCC(Oc4ccnc(COc5ccc(C#N)cc5F)n4)CC3)nc3ccc(C(=O)O)cc32)CC1 [Compound 331] and N#CCC1(Cn2c(CN3CCC(Oc4ccnc(COc5ccc(Cl)cc5F)c4)CC3)nc3ccc(C(=O)O)cc32)CC1 [Compound 337] cannot be ordered by EC50: < 50 nM for the first, < 50 nM for the second.

First: O=C(O)c1ccc2nc(CN3CCN(C(=O)c4ccc(COc5ccc(C6CC6)cc5Cl)o4)CC3)n(C[C@@H]3CCO3)c2c1 [Compound 81, 2-[(4-{5-[(2-chloro-4-cyclopropylphenoxy)methyl]furan-2-carbonyl}piperazin-1-yl)methyl]-1-{[(2S)-oxetan-2-yl]methyl}-1H-1,3-benzodiazole-6-carboxylic acid]
Second: O=C(O)c1ccc2nc(CN3CCN(C(=O)c4ccc(OCc5ccc(Cl)cc5Cl)o4)CC3)n(C[C@@H]3CCO3)c2c1 [Example 73, (S)-2-((4-(5-((2,4-Dichlorobenzyl)oxy)furan-2-carbonyl)piperazin-1-yl)methyl)-1-(oxetan-2-ylmethyl)-1H-benzo[d]imidazole-6-carboxylic acid]
The EC50 of the first is lower: 50 to 500 nM for the first, > 500 nM for the second. The first is the more potent here.

Cc1ccc(N(C)c2cncc(C(=O)N3CCN(Cc4nc5ccc(C(=O)O)cc5n4C[C@@H]4CCO4)CC3)c2)c(Cl)c1 [Compound 85, 2-[(4-{5-[(2-chloro-4-methylphenyl)(methyl)amino]pyridine-3-carbonyl}piperazin-1-yl)methyl]-1-{[(2S)-oxetan-2-yl]methyl}-1H-1,3-benzodiazole-6-carboxylic acid] and Cc1ccc2oc3cc(C(=O)N4CCN(Cc5nc6ccc(C(=O)O)cc6n5C[C@@H]5CCO5)CC4)ccc3c(=O)c2c1 [Example 44, (S)-2-((4-(7-Methyl-9-oxo-9H-xanthene-3-carbonyl)piperazin-1-yl)methyl)-1-(oxetan-2-ylmethyl)-1H-benzo[d]imidazole-6-carboxylic acid] fall in the same range of EC50: 50 to 500 nM for the first, 50 to 500 nM for the second.

First: O=C(O)c1ccc2nc(CN3CCN(Cc4ccc(COc5ccccc5)o4)CC3)n(C[C@@H]3CCO3)c2c1 [Example 20, (S)-1-(Oxetan-2-ylmethyl)-2-((4-((5-(phenoxymethyl)furan-2-yl)methyl)piperazin-1-yl)methyl)-1H-benzo[d]imidazole-6-carboxylic acid]
Second: Cc1c(Cl)cccc1OCc1ccc(CN2CCN(Cc3nc4ccc(C(=O)O)cc4n3C[C@@H]3CCO3)CC2)o1 [Compound 8, 2-{[4-({5-[(3-chloro-2-methylphenoxy)methyl]furan-2-yl}methyl)piperzin-1-yl]methyl}-1-{[(2S)-oxetan-2-yl]methyl}-1H-1,3-benzodiazole-6-carboxylic acid]
The EC50 of the first is higher: > 500 nM for the first, 50 to 500 nM for the second.

O=C(O)c1ccc2nc(CN3CCC(Oc4ccnc(COc5ccc(Cl)cc5)c4)CC3)n(C[C@@H]3CCO3)c2c1 [Compound 352] and N#Cc1cc(Cl)ccc1OCc1cc(OC2CCN(Cc3nc4ccc(C(=O)O)cc4n3C[C@@H]3CCO3)CC2)ccn1 [Compound 182, 2-{[4-({2-[(4-chloro-2-cyanophenoxy)methyl]pyridin-4-yl}oxy)piperidin-1-yl]methyl}-1-{[(2S)-oxetan-2-yl]methyl}-1H-1,3-benzodiazole-6-carboxylic acid] cannot be ordered by EC50: < 50 nM for the first, < 50 nM for the second.

First: CCn1cncc1Cn1c(CN2CCc3[nH]c4ccc(OCc5ccc(Cl)cc5Cl)cc4c3C2)nc2ccc(C(=O)O)cc21 [Compound 143, 2-({8-[(2,4-dichlorophenyl)methoxy]-1H,2H,3H,4H,5H-pyrido[4,3-b]indol-2-yl}methyl)-1-[(1-ethyl-1H-imidazol-5-yl)methyl]-1H-1,3-benzodiazole-6-carboxylic acid]
Second: CCn1cncc1Cn1c(CN2CCN(Cc3ccc(COc4ccc(Cl)cc4Cl)o3)CC2)nc2ccc(C(=O)O)cc21 [Compound 63, 2-{[4-({5-[(2,4-dichlorophenoxy)methyl]furan-2-yl}methyl)piperazin-1-yl]methyl}-1-[(1-ethyl-1H-imidazol-5-yl)methyl]-1H-1,3-benzodiazole-6-carboxylic acid]
The EC50 of the first is higher: 50 to 500 nM for the first, < 50 nM for the second.

N#Cc1cc(C2CC2)ccc1OCc1nccc(OC2CCN(Cc3nc4c(F)cc(C(=O)O)cc4n3C[C@@H]3CCO3)CC2)n1 [Compound 508, (S)-2-((4-((2-((2-cyano-4-cyclopropylphenoxy)methyl)pyrimidin-4-yl)oxy)piperidin-1-yl)methyl)-4-fluoro-1-(oxetan-2-ylmethyl)-1H-benzo[d]imidazole-6-carboxylic acid] and N#Cc1cc(C2CC2)ccc1OCc1nccc(OC2CCN(Cc3nc4ccc(C(=O)O)cc4n3C[C@@H]3CCO3)CC2)n1 [Compound 476, 2-{[4-({2-[(2-cyano-4-cyclopropylphenoxy)methyl]pyrimidin-4-yl}oxy)piperidin-1-yl]methyl}-1-{[(2S)-oxetan-2-yl]methyl}-1H-1,3-benzodiazole-6-carboxylic acid] cannot be ordered by EC50: < 50 nM for the first, < 50 nM for the second.

O=C(O)c1ccc2nc(CN3CCC(Oc4ccnc(COc5ccc(F)cc5F)n4)CC3)n(C[C@@H]3CCO3)c2c1 [Compound 479, 2-{[4-({2-[(2,4-difluorophenoxy)methyl]pyrimidin-4-yl}oxy)piperidin-1-yl]methyl}-1-{[(2S)-oxetan-2-yl]methyl}-1H-1,3-benzodiazole-6-carboxylic acid] and N#Cc1cc(F)c(F)cc1OCc1nccc(OC2CCN(Cc3nc4ccc(C(=O)O)cc4n3C[C@@H]3CCO3)CC2)n1 [Compound 504, 2-{[4-({2-[(2-cyano-4,5-difluorophenoxy)methyl]pyrimidin-4-yl}oxy)piperidin-1-yl]methyl}-1-{[(2S)-oxetan-2-yl]methyl}-1H-1,3-benzodiazole-6-carboxylic acid] cannot be ordered by EC50: < 50 nM for the first, < 50 nM for the second.

CCn1cncc1Cn1c(CN2CCC(Oc3cnc(COc4ccc(Cl)cc4Cl)o3)CC2)nc2ccc(C(=O)O)cc21 [Compound 214, 2-{[4-({2-[(2,4-dichlorophenoxy)methyl]-1,3-oxazol-5-yl}oxy)piperidin-1-yl]methyl}-1-[(1-ethyl-1H-imidazol-5-yl)methyl]-1H-1,3-benzodiazole-6-carboxylic acid] and CCn1cncc1Cn1c(CN2CCC(Cc3cnc(COc4ccc(Cl)cc4C#N)o3)CC2)nc2ccc(C(=O)O)cc21 [Compound 138, 2-{[4-({2-[(4-chloro-2-cyanophenoxy)methyl]-1,3-oxazol-5-yl}methyl)piperidin-1-yl]methyl}-1-[(1-ethyl-1H-imidazol-5-yl)methyl]-1H-1,3-benzodiazole-6-carboxylic acid] cannot be ordered by EC50: < 50 nM for the first, < 50 nM for the second.

O=C(O)c1ccc2nc(CN3CCC(Oc4ccnc(COc5ccc(Cl)cc5Cl)c4)CC3)n(C[C@@H](O)CCO)c2c1 [Compound 227, 2-{[4-({2-[(2,4-dichlorophenoxy)methyl]pyridin-4-yl}oxy)piperidin-1-yl]methyl}-1-[(2S)-2,4-dihydroxybutyl]-1H-1,3-benzodiazole-6-carboxylic acid] and N#Cc1ccc(OCc2nccc(OC3CCN(Cc4nc5ccc(C(=O)O)cc5n4C[C@@H]4CCO4)CC3)n2)c(Cl)c1 [Compound 369] cannot be ordered by EC50: < 50 nM for the first, < 50 nM for the second.

Compared with CCn1cncc1Cn1c(CN2CC[C@@H](Cc3cnc(COc4ccc(Cl)cc4Cl)o3)C[C@@H]2C)nc2ccc(C(=O)O)cc21 [Compound 278, 2-{[(2S,4R)-4-({2-[(2,4-dichlorophenoxy)methyl]-1,3-oxazol-5-yl}methyl)-2-methylpiperidin-1-yl]methyl}-1-[(1-ethyl-1H-imidazol-5-yl)methyl]-1H-1,3-benzodiazole-6-carboxylic acid], O=C(O)c1ccc2nc(CN3CCN(C(=O)c4cnc(COc5ccc(Cl)cc5Cl)o4)CC3)n(C[C@@H]3CCO3)c2c1 [Example 102, (S)-2-((4-(2-((2,4-Dichlorophenoxy)methyl)oxazole-5-carbonyl)piperazin-1-yl)methyl)-1-(oxetan-2-ylmethyl)-1H-benzo[d]imidazole-6-carboxylic acid] is higher in EC50: < 50 nM for the first, 50 to 500 nM for the second.

O=C(O)c1ccc2nc(CN3CC=C(Cc4ccc(COc5ccc(Cl)cc5Cl)o4)CC3)n(C[C@@H]3CCO3)c2c1 [Compound 84, 2-{[4-({5-[(2,4-dichlorophenoxy)methyl]furan-2-yl}methyl)-1,2,3,6-tetrahydropyridin-1-yl]methyl}-1-{[(2S)-oxetan-2-yl]methyl}-1H-1,3-benzodiazole-6-carboxylic acid] was tested, and the EC50 was < 50 nM.
